# In patent US20050256132A1, “Use of ER selective NF-kB inhibitors for the treatment of sepsis” (priority 2003, published 2005):
# Counter-ions that a name gives are not always drawn.
# What was measured:
# [1] = system: ER/IL-6; experiment: Endothelial Cell ER/IL-6 Assay, IL-6 promoter luciferase (Table 2); assay type: cell-based, human; details: Homo sapiens, HAECT1, ERα infected HAECT-1 cells, IL-1β; for Emax: read-out: IL6 luc % Efficacy; for IC50: read-out: IL6 luc IC50
# Description: T-175 flasks of 100% confluent HAECT-1 cells (immortalized human aortic endothelial cells) were washed with 8 ml of HBSS (HEPES buffered saline solution) and infected for fours hours with 6 ml of a 1:10 dilution of Ad5-wt-hERα virus (an adenovirus transfection vector that mediates CMV promoter driven expression of human ERα) in phenol red free Endothelial Cell Basal medium (Clonetics, San Diego, Calif., Catalog # CC-3129) containing 0.25% bovine serum albumin (EDM-BSA). After four hours, cells were washed with EDM-BSA and incubated overnight in the same medium. Following overnight incubation, cells were washed with EDM-BSA and infected for 2 hours with 6 ml of a 1:10 dilution of Ad5-3x(NFκB).Luc virus (Adenovirus luciferase expression vector driven by three repeats of the MHC NFκb sites 5′ to the thymidine kinase promoter) in EDM-BSA. After two hours, cells were washed and incubated at 34° C. for one hour. Cells were then washed, trypsinized, counted, and resuspended in 95% FBS/5% dimethylsulfoxide at a concentration of […], frozen as 1 or 5 ml aliquots in cryo-vials and stored at −150° C. Control (no ER infection) cells were processed as above without Ad5-wt-hERα virus infection.
# ERα infected HAECT-1 cells or control cells were thawed, diluted 42× in warm EBM-BSA, plated into 96-well plates at 0.1 ml/well and incubated for 4 hours at 34° C. Test compounds were added to the cells at 2× stocks in EBM-BSA containing 2 ng/ml IL-1β Ad6-IL-6(1250 bp).Luc virus and plates were returned to the incubator (34° C.). After […], cells were lysed with 50 μl of Promega Cell Culture Lysis reagenet for about 5 minutes at room temperature on a shaker. After lysing, 15 μl of lysate is transferred to luminometer plates for luciferase determination. Luciferase activity is evaluated using a Perkin Elmer Victor2 1420 multilabel counter. Creatine kinase was determined from the rate of increase in A340 following addition of 100 μl of CK assay reagent (Sigma catalog no. 47-10) to the remainder of the cell lysate.
# For IC50 and EC50 calculations, mean IL-6, luciferase or CK values versus log10 of the compound concentration were fitted to a four parameter logistic equation. The IC50/EC50 value, ‘Hill slope,’ upper and lower limits of the curve were iteratively estimated.
SMILES,melting point,Emax [1],IC50 [1]
"CCN(CC)CC[C@](C#N)(C(=O)OC)[C@H](c1ccccc1OC)c1cccc2ccccc12 (relative stereo) (as salt: HCl) [Example 148, Methyl (2S*)-2-cyano-4-(diethylamino)-2-[(S*)-(2-methoxyphenyl)(1-naphthyl)methyl]butanoate]",174 °C (dec.),–,–
"COC(=O)[C@@](C#N)(Cc1ccncc1)[C@H](c1ccccc1OC)c1cccc2ccccc12 (relative stereo) [Example 142, Methyl (2S*,3S*)-2-cyano-3-(2-methoxyphenyl)-3-(1-naphthyl)-2-(pyridin-4-ylmethyl)propanoate]",228 to 230 °C (dec.),103%,69 nM
"COC(=O)[C@@](C#N)(Cc1cccnc1)[C@H](c1ccccc1OC)c1cccc2ccccc12 (relative stereo) [Example 145, Methyl (2S*,3S*)-2-cyano-3-(2-methoxyphenyl)-3-(1-naphthyl)-2-(pyridin-3-ylmethyl)propanoate]",160 to 164.4 °C,102%,–
"COC(=O)[C@@](C#N)(COCc1ccccc1)[C@H](c1ccccc1OC)c1cccc2ccccc12 (relative stereo) [Example 146, Methyl (2S*,3S*)-2-[(benzyloxy)methyl]-2-cyano-3-(2-methoxyphenyl)-3-(1-naphthyl)propanoate]",132.9 to 134.4 °C,135%,5.5 nM
"COC[C@](C#N)(C(=O)OC(C)(C)C)[C@H](c1ccccc1OC)c1cccc2ccccc12 (relative stereo) [Example 149, tert-Butyl (2S*,3S*)-2-cyano-2-(methoxymethyl)-3-(2-methoxyphenyl)-3-(1-naphthyl)propanoate]",163 to 165.3 °C,102%,18 nM
"COc1ccccc1[C@H](c1cccc2ccccc12)[C@](C#N)(COCc1ccccc1)C(=O)OC(C)(C)C (relative stereo) [Example 154, tert-Butyl (2S*,3S*)-2-[(benzyloxy)methyl]-2-cyano-3-(2-methoxyphenyl)-3-(1-naphthyl)propanoate]",166 to 170 °C,87%,6 nM
"COc1ccccc1[C@@H](c1cccc2ccccc12)[C@](C#N)(COCc1ccccc1)C(=O)N1CCN(CCCN(C)C)CC1 (relative stereo) [Example 205, (2S*)-2-[(benzyloxy)methyl]-3-{4-[3-(dimethylamino)propyl]piperazin-1-yl}-2-[(R*)-(2-methoxyphenyl)(1-naphthyl)methyl]-3-oxopropanenitrile]",192 to 193 °C,58%,334 nM
"COc1ccccc1[C@H](c1cccc2ccccc12)[C@@](C)(C#N)C(=O)N1CCN(c2ccncc2)CC1 [Example 133, (2S,3S)-3-(2-methoxyphenyl)-2-methyl-3-(1-naphthyl)-2-[(4-pyridin-4-ylpiperazin-1-yl)carbonyl]propanenitrile]",142 to 144 °C,81%,206 nM
"COc1ccccc1[C@H](c1cccc2ccccc12)[C@@](C)(C#N)C(=O)N1CCC(N2C(=O)CCc3ccccc32)CC1 [Example 134, (2S,3S)-3-(2-methoxyphenyl)-2-methyl-3-(1-naphthyl)-2-{[4-(2-oxo-3,4-dihydroquinolin-1(2H)-yl)piperidin-1-yl]carbonyl}propanenitrile]",265 to 267 °C,85%,612 nM
"COc1ccccc1[C@H](c1cccc2ccccc12)[C@@](C)(C#N)C(=O)N1CC=C(c2ccc(Br)cc2)CC1 [Example 135, (2S)-3-[4-(4-bromophenyl)-3,6-dihydropyridin-1(2H)-yl]-2-[(S)-(2-methoxyphenyl)(1-naphthyl)methyl]-2-methyl-3-oxopropanenitrile]",136 to 139 °C,119%,65 nM
"COc1ccccc1[C@H](c1cccc2ccccc12)[C@@](C)(C#N)C(=O)N1CCN(c2cccc(C(F)(F)F)c2)CC1 [Example 136, (2S,3S)-3-(2-methoxyphenyl)-2-methyl-3-(1-naphthyl)-2-({4-[3-(trifluoromethyl)phenyl]piperazin-1-yl}carbonyl)propanenitrile]",158 to 162 °C,142%,63 nM
"COc1ccccc1[C@H](c1cccc2ccccc12)[C@@](C)(C#N)C(=O)N1CCC(C2CCCC(C(F)(F)F)C2)CC1 (stereo partly drawn) [Example 139, (2S,3S)-3-(2-methoxyphenyl)-2-methyl-3-(1-naphthyl)-2-({4-[3-(trifluoromethyl)cyclohexyl]piperidin-1-yl}carbonyl)propanenitrile]",160 to 165 °C,98%,113 nM
"COC[C@](C#N)(C(=O)OC)[C@H](c1ccccc1OC)c1cccc2ccccc12 [Example 150, Methyl (2S,3S)-2-cyano-2-(methoxymethyl)-3-(2-methoxyphenyl)-3-(1-naphthyl)propanoate]",176 to 178 °C,–,–
"COC(=O)[C@@](C#N)(Cc1cccnc1)[C@H](c1ccccc1OC)c1cccc2ccccc12 [Example 156, Methyl (2S,3S)-2-cyano-3-(2-methoxyphenyl)-3-(1-naphthyl)-2-(pyridin-3-ylmethyl)propanoate]",193 °C (dec.),73%,–
"COc1ccccc1C(c1ccnc2ccccc12)C(C)(C#N)C(=O)N1CCC(c2cccc(C(F)(F)F)c2)CC1 (stereo not drawn) [Example 161, 3-(2-Methoxyphenyl)-2-methyl-3-quinolin-4-yl-2-({4-[3-(trifluoromethyl)phenyl]piperidin-1-yl}carbonyl)propanenitrile]",163 to 165 °C,122%,798 nM
"COc1ccccc1[C@H](c1cccc2ccccc12)[C@@](C)(C#N)C(=O)N1CC=C(c2c[nH]c3ccccc23)CC1 [Example 182, (2S)-3-[4-(1H-indol-3-yl)-3,6-dihydropyridin-1(2H)-yl]-2-[(s)-(2-methoxyphenyl)(1-naphthyl)methyl]-2-methyl-3-oxopropanenitrile]",229 to 231 °C,74%,45 nM
"COc1ccccc1[C@H](c1cccc2ccccc12)[C@@](C)(C#N)C(=O)N1CCC2(CC1)C(=O)NCN2c1ccccc1 [Example 184, (2S,3S)-3-(2-methoxyphenyl)-2-methyl-3-(1-naphthyl)-2-[(4-oxo-1-phenyl-1,3,8-triazaspiro[4.5]dec-8-yl)carbonyl]propanenitrile]",176 to 178 °C,88%,445 nM
"COc1ccccc1[C@H](c1cccc2ccccc12)[C@@](C)(C#N)C(=O)N1CCC(c2cccc(C(F)(F)F)c2)C(O)C1 (stereo partly drawn) [Example 185, (2S)-3-{3-hydroxy-4-[3-(trifluoromethyl)phenyl]piperidin-1-yl}-2-[(S)-(2-methoxyphenyl)(1-naphthyl)methyl]-2-methyl-3-oxopropanenitrile]",259 °C,116%,288 nM
"COc1ccccc1[C@H](c1cccc2ccccc12)[C@@](C)(C#N)C(=O)N1CCc2[nH]c3ccc(F)cc3c2C1 [Example 189, (2S)-3-(8-fluoro-1,3,4,5-tetrahydro-2H-pyrido[4,3-b]indol-2-yl)-2-[(S)-(2-methoxyphenyl)(1-naphthyl)methyl]-2-methyl-3-oxopropanenitrile]",172 to 174 °C,103%,348 nM
